Data from patent US8188001B2, “Fungicidal mixtures” (BASF Aktiengesellschaft, priority 2002, dated 2012).

Key:
Sphaerotheca fuliginea = assay: Protective activity against mildew of cucumber, spray on potted cucumber seedlings; assay type: in vivo; conditions: cucumber cv. chinese snake, 7 days
Description: (§1) The active compounds, separately or together, were formulated as a 10% emulsion in a mixture of 85% by weight of cyclohexanone and 5% by weight of emulsifier, and diluted with water to the desired concentration.
(§2) Evaluation was carried out by determining the infected leaf areas in percent. These percentages were converted into efficacies. The efficacy (W) was calculated as follows using Abbot's formula:
(§3) [formula] • α corresponds to the fungal infection of the treated plants in % and • β corresponds to the fungal infection of the untreated (control) plants in %.
(§4) An efficacy of 0 means that the infection level of the treated plants corresponds to that of the untreated control plants; an efficacy of 100 means that the treated plants were not infected.
(§5) The expected efficacies of the mixtures of the active compounds were determined using Colby's formula [R. S. Colby, Weeds 15, 20-22 (1967)] and compared with the observed efficacies. Colby formula: E=x+y−xy/100 • E expected efficacy, expressed in % of the untreated control, when using the mixture of the active compounds A and B at the concentrations a and b • x efficacy, expressed in % of the untreated control, when using active compound A at a concentration of a • y efficacy, expressed in % of the untreated control, when using active compound B at a concentration of b.
Use example 2: Protective activity against mildew of cucumber caused by Sphaerotheca fuliginea
Leaves of cucumber seedlings of the cultivar “chinese snake”, grown in pots, were, at the cotyledon stage, sprayed to runoff point with an aqueous preparation of active compound which had been prepared from a stock solution comprising 10% of active compound, 85% of cyclohexanone and 5% of emulsifier. 20 hours after the spray coating had dried on, the plants were inoculated with an aqueous spore suspension of mildew of cucumber (Sphaerotheca fuliginea). The plants were then cultivated in a greenhouse at 20-24° C. and 60-80% relative atmospheric humidity for 7 days. The extent of the mildew development was then determined visually in % infection of the cotyledon area. The visually determined values for the percentage of diseased leaf areas were converted into efficacies in % of the untreated control. An efficacy of 0 means the same disease level as in the untreated control, an efficacy of 100 means a disease level of 0%. The expected efficacies for the combinations of active compounds were determined using Colby's formula, mentioned above, and compared with the observed efficacies.

[1] = test system: Erysiphe [syn. Blumeria] graminis form a specialis. tritici; assay: Activity against mildew of wheat, protective spray on potted wheat seedlings; assay type: in vivo; conditions: wheat cv. Kanzler, 7 days
Description: as §1, §2, §3, §4, §5
Use example 1: Activity against mildew of wheat caused by Erysiphe [syn. Blumeria] graminis form a specialis. tritici
Leaves of wheat seedlings of the cultivar “Kanzler”, grown in pots, were sprayed to runoff point with an aqueous preparation of active compound which had been prepared from a stock solution comprising 10% of active compound, 85% of cyclohexanone and 5% of emulsifier, and 24 hours after the spray coating had dried on, the leaves were dusted with spores of mildew of wheat (Erysiphe [syn. Blumeria] graminis form a specialis. tritici). The test plants were then placed in a greenhouse at 20-24° C. and 60-90% relative atmospheric humidity. After 7 days, the extent of the mildew development was determined visually in % infection of the entire leaf area.
The visually determined values for the percentage of diseased leaf areas were converted into efficacies in % of the untreated control. An efficacy of 0 means the same disease level as in the untreated control, an efficacy of 100 means a disease level of 0%. The expected efficacies for the combinations of active compounds were determined using Colby's formula, mentioned above, and compared with the observed efficacies.

Row | SMILES | Efficacy in % of the untreated control (Sphaerotheca fuliginea; 0.25 ppm in the spray liquor) | Efficacy in % of the untreated control (Sphaerotheca fuliginea; 1 ppm in the spray liquor) | Efficacy in % of the untreated control ([1]; 0.25 ppm in the spray liquor) | Efficacy in % of the untreated control ([1]; 1 ppm in the spray liquor) | Efficacy in % of the untreated control ([1]; 4 ppm in the spray liquor) | Efficacy in % of the untreated control (Sphaerotheca fuliginea; 0.06 ppm in the spray liquor) | Efficacy in % of the untreated control (Sphaerotheca fuliginea; 4 ppm in the spray liquor) | Efficacy in % of the untreated control ([1]; 0.06 ppm in the spray liquor) | Efficacy in % of the untreated control (Sphaerotheca fuliginea; 0.015 ppm in the spray liquor) | Efficacy in % of the untreated control ([1]; 0.015 ppm in the spray liquor)
1 | OC(Cc1ccccc1Cl)(Cn1nc[nH]c1=S)C1(Cl)CC1 (stereo not shown) [Compound I, 2-[2-(1-chlorocyclopropyl)-3-(2-chlorophenyl)-2-hydroxypropyl]-2,4-dihydro-[1,2,4]-triazole-3-thione] | 56% | 78% | 0% | 0% | 42% |  |  |  |  | 
2 | O=C(Nc1ccccc1-c1ccc(Cl)cc1)c1cccnc1Cl [Compound II, boscalid] | 0% |  | 0% | 0% | 0% | 0% | 78% | 0% |  | 
3 | COc1cc(C)c(C(=O)c2c(OC)ccc(Br)c2C)c(OC)c1OC [Compound IV, metrafenone] |  |  |  |  |  | 0% |  | 53% | 0% | 30%
4 | N#Cc1sc2c(=O)c3ccccc3c(=O)c=2sc1C#N [Compound VIII, dithianon] |  |  |  | 0% | 0% |  |  |  |  | 
5 | O=C(Cc1ccccc1)N/C(=N\OCC1CC1)c1c(OC(F)F)ccc(F)c1F [Compound VI] |  |  | 53% |  |  | 33% |  | 0% | 0% | 
6 | Cc1ccc(-c2c(Cl)nc(C#N)n2S(=O)(=O)N(C)C)cc1 [Compound XI, cyazofamid] |  |  | 22% | 22% |  |  |  | 0% |  | 
